The values below come from PubChem BioAssay AID248 (DTP/NCI, 2004).

Values joined by “and” are separate entries in the source; they are usually repeats but may differ in a detail not shown here. Identical values can stand only once. Inconclusive results and toxic doses are left out.

The assay concerns L1210 leukemia ip in BDF1 mice, survival T/C. The assay can be described thus: NCI In Vivo Anticancer Drug Screen. Data for tumor model L1210 Leukemia (intraperitoneal) in B6D2F1 (BDF1) mice. As to conditions: endpoint: mean survival time, higher = longer survival. The procedure, abridged:
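Antitumor effect is assessed in tumor-bearing animals. Survival in the compound arm is compared with a vehicle-dosed control arm and expressed as their quotient.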

Where [1] appears, read: dose: 50.0 mg/kg/injection, schedule: Q04DX003 (ip), vehicle: Klucel (hydroxypropylcellulose) (HPC).
The mark [2] stands for this setting: dose: 100.0 mg/kg/injection, schedule: Q04DX003 (ip), vehicle: Klucel (hydroxypropylcellulose) (HPC).
Where [3] appears, read: dose: 50.0 mg/kg/injection, schedule: Q01DX009 (ip), vehicle: Klucel (hydroxypropylcellulose) (HPC).
Where [4] appears, read: dose: 200.0 mg/kg/injection, schedule: Q04DX003 (ip), vehicle: Klucel (hydroxypropylcellulose) (HPC).

Consider `Nc1ccc2c(c1)-c1ccc(F)cc1C2`, for which the T/C is 89 % of control (dose: 100.0 mg/kg/injection, schedule: Q01DX001 (ip), vehicle: carboxymethylcellulose (CMC)); 100 % of control (dose: 200.0 mg/kg/injection, schedule: Q01DX001 (ip), vehicle: carboxymethylcellulose (CMC)); 94 % of control (dose: 400.0 mg/kg/injection, schedule: Q01DX001 (ip), vehicle: carboxymethylcellulose (CMC)).

`O=C(COc1ccc(Cl)c(Cl)c1)NCc1ccc[n+](Cc2ccc(S(=O)(=O)F)cc2)c1`: the T/C (dose: 25.0 mg/kg/injection, schedule: Q04DX003 (ip), vehicle: Klucel (hydroxypropylcellulose) (HPC)) is 106 % of control; the T/C under setting [1] is 101 % of control; the T/C under setting [2] is 94 % of control and 101 % of control.

With `CC(=O)c1cc(C)c(C)c(C)c1`, the T/C reads like this: (dose: 100.0 mg/kg/injection, schedule: Q01DX001 (ip), vehicle: saline) 96 % of control; (dose: 200.0 mg/kg/injection, schedule: Q01DX001 (ip), vehicle: saline) 96 % of control; (dose: 400.0 mg/kg/injection, schedule: Q01DX001 (ip), vehicle: saline) 91 % of control.

Consider `C[P+](c1ccc(F)cc1)(c1ccc(F)cc1)c1ccc(F)cc1`, for which the T/C is, setting by setting: (dose: 25.0 mg/kg/injection, schedule: Q01DX009 (ip), vehicle: Klucel (hydroxypropylcellulose) (HPC)) 98 % of control; under setting [3], 96 % of control; under setting [2], 89 % of control.

In the case of `c1ccc(NN(CN(Nc2ccccc2)c2ccccc2)c2ccccc2)cc1`, the T/C is, setting by setting: (dose: 100.0 mg/kg/injection, schedule: Q01DX001 (ip), vehicle: other) 95 % of control; (dose: 400.0 mg/kg/injection, schedule: Q01DX001 (ip), vehicle: other) 89 % of control.

Take `c1ccc(-c2ccc([Si](c3ccccc3)(c3ccc(-c4ccccc4)cc3)c3ccc(-c4ccccc4)cc3)cc2)cc1`: the T/C reads like this: under setting [3], 91 % of control; under setting [1], 93 % of control; (dose: 100.0 mg/kg/injection, schedule: Q01DX009 (ip), vehicle: Klucel (hydroxypropylcellulose) (HPC)) 93 % of control; under setting [2], 89 % of control; (dose: 200.0 mg/kg/injection, schedule: Q01DX009 (ip), vehicle: Klucel (hydroxypropylcellulose) (HPC)) 93 % of control; under setting [4], 88 % of control.

Consider `Nc1nc(N)c2cc(CNc3ccc(C(=O)NC(CC(=O)O)C(=O)O)c(Cl)c3)ccc2n1` (stereo unspecified), for which the T/C reads like this: (dose: 1.8 mg/kg/injection, schedule: Q01DX009 (ip), vehicle: saline with Tween-80) 152 % of control; (dose: 1.8 mg/kg/injection, schedule: Q01DX009 (ip), vehicle: saline) 157 % of control; (dose: 2.7 mg/kg/injection, schedule: Q01DX009 (ip), vehicle: saline with Tween-80) 178 % of control; (dose: 2.7 mg/kg/injection, schedule: Q01DX009 (ip), vehicle: saline) 162 % of control and 180 % of control; (dose: 9.0 mg/kg/injection, schedule: Q01DX009 (ip), vehicle: saline) 92 % of control; (dose: 30.0 micrograms/kg/injection, schedule: Q01DX009 (ip), vehicle: saline with Tween-80) 95 % of control. In addition, the T/C is, setting by setting: (dose: 44.0 micrograms/kg/injection, schedule: Q01DX009 (ip), vehicle: saline with Tween-80) 107 % of control; (dose: 67.0 micrograms/kg/injection, schedule: Q01DX009 (ip), vehicle: saline with Tween-80) 95 % of control; (dose: 100.0 micrograms/kg/injection, schedule: Q01DX009 (ip), vehicle: saline with Tween-80) 95 % of control.

`COc1ccc(COC(=O)Oc2ccc(OC)cc2)cc1`: the T/C reads like this: under setting [2], 102 % of control; under setting [4], 98 % of control; (dose: 400.0 mg/kg/injection, schedule: Q04DX003 (ip), vehicle: Klucel (hydroxypropylcellulose) (HPC)) 112 % of control.

With `CN(C)/N=C/c1ccccc1C(=O)O`, the T/C is, setting by setting: (dose: 50.0 mg/kg/injection, schedule: Q04DX003 (ip), vehicle: saline with Tween-80) 101 % of control; (dose: 100.0 mg/kg/injection, schedule: Q04DX003 (ip), vehicle: saline with Tween-80) 97 % of control; (dose: 200.0 mg/kg/injection, schedule: Q04DX003 (ip), vehicle: saline with Tween-80) 96 % of control; (dose: 400.0 mg/kg/injection, schedule: Q04DX003 (ip), vehicle: saline with Tween-80) 106 % of control.

Regarding `CC(C)C(=O)Oc1ccc(-c2ccccc2)cc1`, the T/C is 93 % of control (dose: 100.0 mg/kg/injection, schedule: Q04DX002 (ip), vehicle: Klucel (hydroxypropylcellulose) (HPC)); 100 % of control (dose: 200.0 mg/kg/injection, schedule: Q04DX002 (ip), vehicle: Klucel (hydroxypropylcellulose) (HPC)); 100 % of control (dose: 400.0 mg/kg/injection, schedule: Q04DX002 (ip), vehicle: Klucel (hydroxypropylcellulose) (HPC)).

In the case of `CNc1cc(C(=O)O)nc(NC)n1`, the T/C runs as follows: (dose: 25.0 mg/kg/injection, schedule: Q01DX Z (ip), vehicle: saline) 102 % of control; (dose: 50.0 mg/kg/injection, schedule: Q01DX Z (ip), vehicle: saline) 98 % of control.
